Measurements: patent US20160015770A1, “COMPOSITIONS FOR TREATMENT OF RETINAL DETACHMENT” (THE REGENTS OF THE UNIVERSITY OF MICHIGAN, priority 2013, published 2016)
“Also recorded” adds a separate entry of the source.

Tests used:
661W cells = experiment: Western blot of autophagy markers LC3-II and Atg5-12 in 661W cells treated with Fas activating antibody; format: cell-based, mouse; design: presence of LC3-II and Atg5-12 over time (prolongation of autophagy): dose or concentration left out as unconfirmed; details: Fas activation
Method: The 661W photoreceptor cell line was generously provided by Dr. Muayyad Al-Ubaidi (Department of Cell Biology, University of Oklahoma Health Sciences Center, Oklahoma City, Okla.). The 661W cell line was maintained in Dulbecco's modified Eagle's medium containing 10% fetal bovine serum, 300 mg/L glutamine, 32 mg/L putrescine, 40 μL/L β-mercaptoethanol, and 40 μg/L of both hydrocortisone 21-hemisuccinate and progesterone. The media also contained penicillin (90 units/mL) and streptomycin (0.09 mg/mL). Cells were grown at 37° C. in a humidified atmosphere of 5% CO2 and 95% air. Retinas from experimental eyes with detachment (detached portion of retina only) and control eyes without detachment were dissected from the RPE-choroid, homogenized, and lysed in buffer containing 10 mM HEPES (pH 7.6), 0.5% […], 42 mM KCl, 1 mM phenylmethylsulfonyl fluoride, 1 mM EDTA, 1 mM EGTA, 1 mM dithiothreitol, 5 mM MgCl2, and one tablet of protease inhibitors per 10 mL buffer (Complete Mini; Roche Diagnostics GmbH, Madison, Wis.). 661W cells were plated at 150,000 cells per well in six-well culture dishes in growth media. […] The protein concentration of the supernatant was then determined (DC Protein Assay kit; Bio-Rad Laboratories, Hercules, Calif.). The protein samples were separated on SDS-polyacrylamide gels (Tris-HCl Ready Gels; Bio-Rad Laboratories). […]

calpain 1 = target: T1, calpain 1 (Rattus norvegicus, UniProt P97571); experiment: Experimental retinal detachment, western blot of calpain 1 specific cleaved alpha-spectrin in retina; format: in vivo; details: 0.2 μg subretinal at time of detachment, 7 days after detachment, vs vehicle (DMSO)
T1 construct: Retinas from experimental eyes with detachment (detached portion of retina only) and control eyes without detachment were dissected from the RPE-choroid, homogenized, and lysed; from tissue; host or cells: rat retina (in vivo retinal detachment model)
T1 sequence (P97571 1-713): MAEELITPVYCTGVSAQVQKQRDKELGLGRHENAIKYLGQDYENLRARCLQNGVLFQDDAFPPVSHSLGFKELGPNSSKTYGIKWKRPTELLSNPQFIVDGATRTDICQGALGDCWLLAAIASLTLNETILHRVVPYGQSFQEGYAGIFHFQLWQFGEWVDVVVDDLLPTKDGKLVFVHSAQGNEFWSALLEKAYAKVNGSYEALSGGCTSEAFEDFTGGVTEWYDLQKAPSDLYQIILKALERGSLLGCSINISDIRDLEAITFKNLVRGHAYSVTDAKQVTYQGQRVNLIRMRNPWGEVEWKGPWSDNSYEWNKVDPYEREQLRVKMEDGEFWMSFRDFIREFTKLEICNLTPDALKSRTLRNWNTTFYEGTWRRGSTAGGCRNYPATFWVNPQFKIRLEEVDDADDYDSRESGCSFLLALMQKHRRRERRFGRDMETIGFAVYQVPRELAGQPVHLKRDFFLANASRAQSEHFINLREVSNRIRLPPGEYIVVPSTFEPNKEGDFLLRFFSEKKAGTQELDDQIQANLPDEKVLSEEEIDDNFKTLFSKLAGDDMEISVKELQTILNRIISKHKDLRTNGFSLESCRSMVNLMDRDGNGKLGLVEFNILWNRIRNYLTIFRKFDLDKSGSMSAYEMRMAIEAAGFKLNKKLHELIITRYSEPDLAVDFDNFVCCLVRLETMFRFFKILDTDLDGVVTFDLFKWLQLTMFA
T1 sequence (Q64537 1-270 partner): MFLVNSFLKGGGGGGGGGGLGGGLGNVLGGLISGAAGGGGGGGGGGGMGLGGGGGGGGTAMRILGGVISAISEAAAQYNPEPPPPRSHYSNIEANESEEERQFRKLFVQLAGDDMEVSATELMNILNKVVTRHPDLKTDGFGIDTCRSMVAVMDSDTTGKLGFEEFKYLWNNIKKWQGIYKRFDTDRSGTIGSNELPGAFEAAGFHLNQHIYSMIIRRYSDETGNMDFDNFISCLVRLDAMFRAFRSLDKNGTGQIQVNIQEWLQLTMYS
Description: Detachments were created in adult male Brown-Norway rats (300-400 g; Charles River Laboratories, Wilmington, Mass.) as described previously. Briefly, rodents were anesthetized with a 50:50 mix of ketamine/xylazine, and pupils were dilated with topical phenylephrine (2.5%) and tropicamide (1%). A 20-gauge microvitreoretinal blade was used to create a sclerotomy 2 mm posterior to the limbus, carefully avoiding lens damage. A subretinal injector (Glaser, 32-gauge tip; BD Ophthalmic Systems, Franklin Lakes, N.J.) was introduced through the sclerotomy into the vitreous cavity and then through a peripheral retinotomy into the subretinal space. […]
Retinas from experimental eyes with detachment (detached portion of retina only) and control eyes without detachment were dissected from the RPE-choroid, homogenized, and lysed in buffer containing 10 mM HEPES (pH 7.6), 0.5% IgEPal, 42 mM KCl, 1 mM phenylmethylsulfonyl fluoride, 1 mM EDTA, 1 mM EGTA, 1 mM dithiothreitol, 5 mM MgCl2, and one tablet of protease inhibitors per 10 mL buffer (Complete Mini; Roche Diagnostics GmbH, Madison, Wis.). […] The protein concentration of the supernatant was then determined (DC Protein Assay kit; Bio-Rad Laboratories, Hercules, Calif.). The protein samples were separated on SDS-polyacrylamide gels (Tris-HCl Ready Gels; Bio-Rad Laboratories). […]

caspase 8 = experiment: Caspase 8 activity luminescent assay in Fas-activated 661W cells; format: cell-based, mouse
Method: Caspase 8 activity was measured by a commercially available luminescent cleavage assay kit (Promega, Madison, Wis.). The 661W cells were seeded in 96-well plates at 2,000 cells/well for 24 hours before treatment. Cells were treated with 500 ng/mL Fas-agonistic Jo2 monoclonal antibody and various concentrations of calpeptin or equal volume of DMSO. Caspase 8 activity was measured at 48 hours by incubating the cells with the proluminescent substrate in 96-well plates according to the manufacturer's instructions. Controls included untreated cells and wells with no cells. Luminescence was measured in a plate reader luminometer (Turner Biosystems, Sunnyvale, Calif.).

`CCCC[C@@H](C=O)NC(=O)[C@H](CC(C)C)NC(=O)OCc1ccccc1` [calpeptin] was tested, and the “dose at which LC3-II and Atg5-12 peaked (dose response for increasing autophagy)” value (661W cells; 24 hours) was 25 µM, the “presence of LC3-II and Atg5-12 over time (prolongation of autophagy)” value (661W cells; various lengths of time, calpeptin as printed, vs Fas activation alone / DMSO) was “lasted for an extended period of time; also recorded: elongated presence of LC3-II and Atg5-12” and the “cleaved calpain 1 specific alpha-spectrin in retina” value (calpain 1) was “significantly less; also recorded: less cleaved alpha-spectrin”. For the same compound, the “caspase 8 activity” value (caspase 8; 661W cells not treated with Fas activating antibody, calpeptin alone) was “no effect”, the “caspase 8 activity” value (caspase 8; 661W cells, Fas activating antibody 48 hours, 1 μM) was “little effect” and the “caspase 8 activity” value (caspase 8; 661W cells, Fas activating antibody 48 hours, 10 uM) was “returned caspase 8 activity to baseline levels; also recorded: significantly reduced its activity back to baseline”. The “caspase 8 activity” value (caspase 8; 661W cells, Fas activating antibody 48 hours, 25 uM) was “returned caspase 8 activity to baseline levels; also recorded: significantly reduced its activity back to baseline”.
